Results published in patent US12539279B2, “Supramolecular ionizable lipid molecules with heteroatomic tuning for nucleic acid delivery” (priority 2023, dated 2026).

Experiments:
[1] = mRNA encapsulation efficiency (modified Quant-iT RiboGreen assay); type: physicochemical; settings: LNP before freezing
Description: For LNPs encapsulating mRNA, mRNA concentration and encapsulation efficiency were determined using a modified Quant-iT RiboGreen assay (Invitrogen). The assay was performed in triplicates in a 96 well plate. 12 μL of the LNP sample or TE buffer (composed of 10 mM Tris-HCl containing 1 mM EDTA·Na2) (blank sample) was diluted in 300 μL of 1×TE buffer pH 7.5. 50 μL of the diluted samples were transferred to 6 separate wells and either 50 μL of TE buffer or 50 μL of a 4% Triton X-100 solution in TE buffer was added to the wells. Two 6-point standard curves ([…]) were prepared in the same plate by diluting Firefly luciferase mRNA to a final volume of 100 μL in 2% Triton X-100 or TE buffer. The plate was then incubated for 10 min at 40° C. with gentle shaking. The Ribogreen reagent was diluted 1:100 in TE buffer, and 100 μL of this solution was added to each well. […] Fluorescence intensity was measured with a plate reader at an excitation wavelength of 480 nm and an emission wavelength of 525 nm. The raw fluorescence values were subtracted by the background fluorescence (blank sample). The concentration of free mRNA and total mRNA were determined by linear interpolation of the appropriate standard curve. Encapsulation efficiency was determined by dividing the calculated concentration of encapsulated mRNA by the total mRNA concentration in the LNP sample.

[2] = type: physicochemical
Description: Determination of the apparent pKa of LNPs was carried out using a TNS assay. Briefly, a series of buffers was generated by titrating a solution containing 10 mM citrate, 10 mM phosphate, 10 mM borate, and 150 mM NaCl with 1.0 M HCl. Aliquots of this combined buffer were taken to generate 12 total buffers ranging from pH 4.0 to 9.5 in increments of 0.5 pH. LNPs (diluted to 100 uM of ionizable lipid in distilled water) and 6-(p-toluidino)-2-naphthalenesulfonic acid (TNS, Sigma Aldrich, 60 uM in distilled water) were diluted into these buffers to a final concentration of 9 and 5.45 μM, respectively. The plate was covered and equilibrated at room temperature for 20 min. Fluorescence intensity was determined using a BioTek H1 Synergy plate reader (325 nm excitation/435 nm emission). The raw fluorescence values were fit using GraphPad Prism 8 to determine pKa, which corresponds to the pH value at 50% max fluorescence.

[3] = test system: firefly luciferase protein expression; experiment: Intramuscular expression profile of formulated firefly luciferase mRNA in mice (IVIS); type: in vivo, BALB/c mice; settings: intramuscular firefly luciferase mRNA-LNP
Description: All procedures used in animal studies conducted at the University of Toronto were approved by Institutional Animal Care and Use committee (IACUC) under protocol number 20012621 and comply with all applicable local, provincial, and federal regulations. Female BALB/c mice (7-8 weeks old) were purchased from Charles River Laboratories and acclimated for 1 to 2 weeks before initiation of the study.
Mice (n=4) were injected in both quadriceps with 0.5 μg of formulated firefly luciferase mRNA in 50 μL. At various timepoints (6 hours, 24 hours, 48 hours, and 96 hours post-dose), mice were injected intraperitoneally with 3 mg D-Luciferin (Thermo Scientific 88291) in 200 μL 1×PBS. 5 minutes later, mice were anesthetized and imaged on an in vivo imaging system (PerkinElmer, IVIS Spectrum) to measure total bioluminescent flux (photons/second) in each hindlimb (FIG. 2). The area under curve (AUC) for individual hindlimbs was determined with GraphPad Prism 9.

THP-1 monocytes = type: cell-based, human; settings: THP-1, 500 ng/well mRNA, 24 hours post-transfection
Description: THP-1 monocytes are human cells isolated from the peripheral blood of a patient with acute monocytic leukemia. […] Cells were plated at a density of 100,000 cells per well in a 96-well plate and transfected in quadruplicates with 500 ng/well of firefly luciferase mRNA formulated in lipid nanoparticles. Cell viability and firefly luciferase expression were determined after 24 hours with a plate reader assay, following the manufacturer's protocol (Promega E7110).

| Compound | mRNA encapsulation efficiency relative to amide analogue (Compound I-12) [1] | Apparent pKa relative to amide analogue (Compound I-12 / F16) [2] | intramuscular expression (in words) [3] | cell viability / toxicity (THP-1 monocytes) |
| --- | --- | --- | --- | --- |
| CCCCCCCCCCN(CCCCCCCCCC)CCOC(=O)CCN(CCO)CCC(=O)OCCN(CCCCCCCCCC)CCCCCCCCCC [Compound I-1] | significantly reduced | significantly reduced | significantly reduced intramuscular expression |  |
| CCCCCCCCCCN(CCCCCCCCCC)CCOC(=O)CCCN(CCO)CCCC(=O)OCCN(CCCCCCCCCC)CCCCCCCCCC [Compound I-3] |  |  | higher intramuscular expression than DLin-MC3-DMA | significant cell death |
